The nature of test [1]: ABTS radical decolorization assay (antioxidant capacity). The format is biochemical. The settings on record: 15 min, 734 nm.
The test system of test [2] is Trichophyton mentagrophytes. The experiment in a line: anti-fungal growth inhibition, T. mentagrophytes. The format is cell-based. The settings on record: Trichophyton mentagrophytes, 168 h; for inhibition at 25 µM: read-out: Inhibition rate (25 μM); for inhibition at 50 µM: read-out: Inhibition rate (50 μM); for inhibition at 100 µM: read-out: Inhibition rate (100 μM). As for the experimental part: (§1) Evaluation of anti-fungal activity. In a single well of the 96-well microplate, 10 μL of the testing compound is added into 190 μL of growth medium (Difco™ YM) containing an overnight culture of Trichophyton rubrum or Trichophyton mentagrophytes at a density of approximately 5×10^5 CFU. The testing compounds include dihydro-resveratrol and DR1 to DR11. Wells incubated with 10 μL 0.5% DMSO only (i.e. no testing compound) are served as the experimental control of fungal growth whilst those incubated with growth medium only (i.e. no fungi) are served as the negative control. […] The percentage of growth inhibition of T. mentagrophytes by the different concentrations of testing compounds is shown in Table 10 whilst the percentage of growth inhibition of T. rubrum is shown in Table 11. The images of T. mentagrophytes culture are captured post treatment of dihydro-resveratrol (100 μM) and DR8 (100 μM) when compared to the growth of experimental control and negative control (FIG. 30).

A further test has as its system Trichophyton rubrum. Nature of the test: anti-fungal growth inhibition, T. rubrum. It counts as cell-based. The settings on record: Trichophyton rubrum, 168 h; for inhibition at 25 µM: read-out: Inhibition rate (25 μM); for inhibition at 50 µM: read-out: Inhibition rate (50 μM); for inhibition at 100 µM: read-out: Inhibition rate (100 μM). As for the experimental part: as §1

The test system of a further test is Streptococcus mutans. Nature of the test: anti-bacterial growth inhibition, S. mutans. The format is cell-based. The settings on record: Streptococcus mutans; for inhibition at 25 µM: read-out: Inhibition rate (25 μM); for inhibition at 50 µM: read-out: Inhibition rate (50 μM); for inhibition at 100 µM: read-out: Inhibition rate (100 μM). Here is the method: (§2) Evaluation of anti-bacterial activity. In a single well of the 96-well microplate, 10 μL of the testing compound is added into 190 μL of growth medium growth medium (BBL™ Brain Heart Infusion) containing an overnight culture of Streptococcus mutans or Streptococcus sobrinus at a density of approximately 5×10^5 CFU. The testing compounds include dihydro-resveratrol and DR1 to DR11. Wells incubated with 10 μL 0.5% DMSO only (i.e. no testing compound) are served as the experimental control of bacterial growth whilst those incubated with growth medium only (i.e. no bacteria) are served as the negative control. […] The percentage of growth inhibition of S. mutans by the different concentrations of testing compounds is shown in Table 12 whereas the percentage of growth inhibition of S. sobrinus is shown in Table 13. The images of S. mutans culture are captured post treatment of dihydro-resveratrol (100 μM) and DR8 (100 μM) when compared to the growth of experimental control and negative control (FIG. 31).

In the next test the test system is Streptococcus sobrinus. Nature of the test: anti-bacterial growth inhibition, S. sobrinus. The format is cell-based. The settings on record: Streptococcus sobrinus; for inhibition at 25 µM: read-out: Inhibition rate (25 μM); for inhibition at 50 µM: read-out: Inhibition rate (50 μM); for inhibition at 100 µM: read-out: Inhibition rate (100 μM). As for the experimental part:
as §2

Where [3] appears, read: T. mentagraphytes, 25 μM, one week, 30° C., OD 510 nm.
[4] abbreviates: T. mentagraphytes, 50 μM, one week, 30° C., OD 510 nm.
Setting [5] is: T. mentagraphytes, 100 μM, one week, 30° C., OD 510 nm.
[6] abbreviates: T. rubrum, 25 μM, one week, 30° C., OD 510 nm.
The mark [7] stands for this setting: T. rubrum, 50 μM, one week, 30° C., OD 510 nm.
Where [8] appears, read: T. rubrum, 100 μM, one week, 30° C., OD 510 nm.
The mark [9] stands for this setting: S. mutans, 25 μM, 10 hours, 30° C., OD 600 nm.
The mark [10] stands for this setting: S. mutans, 50 μM, 10 hours, 30° C., OD 600 nm.
Where [11] appears, read: S. mutans, 100 μM, 10 hours, 30° C., OD 600 nm.
[12] abbreviates: S. sobrinus, 25 μM, 10 hours, 30° C., OD 600 nm.
Where [13] appears, read: S. sobrinus, 50 μM, 10 hours, 30° C., OD 600 nm.
The mark [14] stands for this setting: S. sobrinus, 100 μM, 10 hours, 30° C., OD 600 nm.

Read-outs that look alike come from different tables or passages of the source.

For orientation: inhibition means how much of the control response was suppressed. For `C=CCOc1ccc(CCc2cc(OCC=C)cc(OCC=C)c2)cc1` [DR3], the “Trolox equivalent (mg), antioxidant capacity” value (from here on “Trolox equivalent (mg)”) in test [1] came to 119.325 mg. Further, the inhibition at 25 µM in test [2] (setting [3]) came to 4.64%; in the test with Trichophyton rubrum (setting [6]) it was 4.55%; in the test with Streptococcus mutans (setting [9]), 4.18%; with Streptococcus sobrinus (setting [12]) it was 11.7%. Also, the inhibition at 50 µM in test [2] (setting [4]) came to 4.77%; in the test on Trichophyton rubrum (setting [7]) it was 4.25%; in the test on Streptococcus mutans (setting [10]), 2.61%; with Streptococcus sobrinus (setting [13]), 24.2%. Moreover, the inhibition at 100 µM in test [2] (setting [5]) stood at 20.1%; in the test with Trichophyton rubrum (setting [8]) it was 22.3%; in the test on Streptococcus mutans (setting [11]), 7.05%; with Streptococcus sobrinus (setting [14]), 21.1%.
`O=C(Cc1ccccc1)Oc1ccc(CCc2cc(OC(=O)Cc3ccccc3)cc(OC(=O)Cc3ccccc3)c2)cc1` [DR10]: the “Trolox equivalent (mg)” value in test [1] is 0 mg. The inhibition at 25 µM in test [2] amounted to 3.14%; in the test with Trichophyton rubrum it was 8.53%; in the test with Streptococcus mutans (10 h) it was 3.42%; with Streptococcus sobrinus (10 h), 13.8%. In addition, the inhibition at 50 µM in test [2] came to 12.6%; in the test with Trichophyton rubrum, 6.36%; in the test with Streptococcus mutans (10 h) it was 3.56%; in the test with Streptococcus sobrinus (10 h) it was 11.3%. The inhibition at 100 µM stood at 20.9% in test [2], 10.7% in the test on Trichophyton rubrum, 2.44% with Streptococcus mutans (10 h) and 15.8% in the test on Streptococcus sobrinus (10 h).
For `COc1ccc(C(=O)Oc2ccc(CCc3cc(OC(=O)c4ccc(OC)cc4)cc(OC(=O)c4ccc(OC)cc4)c3)cc2)cc1` [DR6], the “Trolox equivalent (mg)” value in test [1] came to 0 mg. Also, the inhibition at 25 µM is 3.33% in test [2] (setting [3]), 5.81% in the test on Trichophyton rubrum (setting [6]), 6.52% in the test with Streptococcus mutans (setting [9]) and 5.99% in the test on Streptococcus sobrinus (setting [12]). Also, the inhibition at 50 µM is 8.01% in test [2] (setting [4]), 2.49% with Trichophyton rubrum (setting [7]), 4.36% with Streptococcus mutans (setting [10]) and 15.7% in the test on Streptococcus sobrinus (setting [13]). The inhibition at 100 µM in test [2] (setting [5]) turned out to be 21.6%; with Trichophyton rubrum (setting [8]) it was 20.9%; in the test with Streptococcus mutans (setting [11]), 5.96%; with Streptococcus sobrinus (setting [14]), 7.54%.
`O=C(Oc1ccc(CCc2cc(OC(=O)c3ccc(Cl)cc3)cc(OC(=O)c3ccc(Cl)cc3)c2)cc1)c1ccc(Cl)cc1` [DR5]: in test [1], the “Trolox equivalent (mg)” value came to 0 mg. The inhibition at 25 µM in test [2] (setting [3]) stood at 3.01%; in the test with Trichophyton rubrum (setting [6]), 0.71%; in the test on Streptococcus mutans (setting [9]), 2.67%; in the test on Streptococcus sobrinus (setting [12]) it was 12.2%. The inhibition at 50 µM is 6.93% in test [2] (setting [4]), 4.25% with Trichophyton rubrum (setting [7]), 8.35% with Streptococcus mutans (setting [10]) and 26.2% in the test with Streptococcus sobrinus (setting [13]). Further, the inhibition at 100 µM in test [2] (setting [5]) turned out to be 14.1%; with Trichophyton rubrum (setting [8]), 5.78%; in the test with Streptococcus mutans (setting [11]), 2.22%; in the test with Streptococcus sobrinus (setting [14]) it was 18.6%.
Consider `O=C(Oc1ccc(CCc2cc(OC(=O)c3ccccc3)cc(OC(=O)c3ccccc3)c2)cc1)c1ccccc1` [DR7], for which the “Trolox equivalent (mg)” value in test [1] is on record as 0 mg. Besides, the inhibition at 25 µM came to 3.79% in test [2] (setting [3]), 3.06% in the test on Trichophyton rubrum (setting [6]), 10.1% in the test with Streptococcus mutans (setting [9]) and 6.33% in the test with Streptococcus sobrinus (setting [12]). The inhibition at 50 µM in test [2] (setting [4]) came out at 0.44%; in the test with Trichophyton rubrum (setting [7]) it was 6.17%; in the test with Streptococcus mutans (setting [10]), 1.55%; in the test on Streptococcus sobrinus (setting [13]), 14.2%. The inhibition at 100 µM is 18.6% in test [2] (setting [5]), 11.6% in the test on Trichophyton rubrum (setting [8]), 2.48% in the test with Streptococcus mutans (setting [11]) and 12.5% in the test with Streptococcus sobrinus (setting [14]).
